The text below walks through data of US12384753B2, “17-beta-hydroxysteroid dehydrogenase type 13 inhibitors and methods of use thereof” (Enanta Pharmaceuticals, Inc., priority 2021, dated 2025).

Chain of Recombinant human HSD17B13 (Q7Z5P4 20-300): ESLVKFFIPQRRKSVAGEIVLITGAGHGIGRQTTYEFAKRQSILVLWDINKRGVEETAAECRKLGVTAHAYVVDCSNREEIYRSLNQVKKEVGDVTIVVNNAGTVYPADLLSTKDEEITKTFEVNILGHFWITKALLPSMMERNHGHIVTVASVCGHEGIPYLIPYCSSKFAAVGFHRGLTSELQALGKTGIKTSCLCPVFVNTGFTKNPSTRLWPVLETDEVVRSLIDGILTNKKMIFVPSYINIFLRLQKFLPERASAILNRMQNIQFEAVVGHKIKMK

For this test, the target named is Recombinant human HSD17B13 (Homo sapiens (Human), UniProt Q7Z5P4). Briefly: HSD17B13 rapid-fire mass spectrometry assay (RF/MS assay). Type of test: biochemical. To be noted: inhibition of HSD17B13; LTB4 10 μM, NAD+ 0.5 mM, RT 3 h; IC50 ranges A-E. Summed up:
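Sf9-expressed human HSD17B13 (80 nM) with 10 μM LTB4 and 0.5 mM NAD+, incubated with compound (0–100 μM) for 3 h at RT in Tris pH 7.5/BSA/Tween-20. After formic acid quench, LTB4 conversion to 12-oxo-LTB4 measured by RapidFire MS/MS. IC50 from normalised residual activity, duplicates.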
As for `COc1cc(C(=O)O)ccc1NS(=O)(=O)c1ccc(-c2cnc(-c3ccc(C4CCCCC4)cc3)s2)cc1` [Example 378, 4-((4-(2-(4-cyclohexylphenyl)thiazol-5-yl)phenyl)sulfonamido)-3-methoxybenzoic acid], the concentration for half-maximal inhibition (IC50) lay within 1000 to 100000 nM.
Next, `COc1c(NS(=O)(=O)c2cnc(-c3ccc(F)cc3)s2)ccc(C(=O)O)c1F` [Example 59]: 100 to 500 nM.
Next, `COc1cc(C(=O)O)ccc1NS(=O)(=O)c1csc(-c2ccc([C@H]3CC[C@H](C(F)(F)F)CC3)cc2)n1` [Example 506]: < 100 nM.
Next, `COc1cc(C(=O)O)c(F)cc1NS(=O)(=O)c1csc(-c2ccc(C3=CCC4(CC3)CC4)cc2)n1` [Example 758]: 100 to 500 nM; `COc1cc(C(=O)O)c(F)cc1NS(=O)(=O)c1ccc2sc(-c3ccc(C4CCCCC4)cc3)nc2c1` [Example 629]: 100 to 500 nM.
As to `O=C(O)c1ccc2c(c1)CCN2S(=O)(=O)c1ccc(F)cc1` [Example 12], the IC50 is > 100000 nM.
Turning to `COc1cc(C(=O)O)ccc1NS(=O)(=O)c1csc(-c2ccc(C(=O)O)cc2)n1` [Example 117], the 50% inhibitory concentration (IC50) lay in the range of 1000 to 100000 nM.
For `COc1cc(C(=O)O)c(F)cc1NS(=O)(=O)c1csc(-c2ccc(C3=CCC(C(F)(F)F)CC3)c(OC(C)C)c2F)n1` (stereo not drawn) [Example 810], the IC50 was < 100 nM.
Next, `COc1cc(C(=O)O)c(F)cc1NS(=O)(=O)c1csc(-c2ccc(C3CCC(C)(C)CC3)c(F)c2F)n1` [Example 521]: 100 to 500 nM; `CCC[C@H]1CC[C@H](C2CCC(c3nc(S(=O)(=O)Nc4ccc(C(=O)O)cc4OC)cs3)CC2)CC1` (stereo partly drawn) [Example 381]: 100 to 500 nM; `COc1cc(C(=O)O)ccc1NS(=O)(=O)c1csc(N2CCN(c3nccs3)CC2)n1` [Example 264]: 1000 to 100000 nM.
Take `CC[C@H]1CC[C@H](c2ccc(-c3nc(S(=O)(=O)Nc4cc5nc[nH]c(=O)c5cc4OC)cs3)cc2)CC1` [Example 575]: the IC50 lay within 1000 to 100000 nM.
As for `COc1cc(C(=O)O)ccc1NS(=O)(=O)N1C[C@H]2CN(C(=O)OC(C)(C)C)C[C@H]2C1` [Example 331, 4-(((3aR,6aS)-5-(tert-butoxycarbonyl)octahydropyrrolo[3,4-c]pyrrole)-2-sulfonamido)-3-methoxybenzoic acid], the IC50 was in the range of 1000 to 100000 nM.
In the case of `COc1cc(C(=O)O)c(F)cc1NS(=O)(=O)c1csc(-c2ccc(C3=CCC(C)(C)CC3)c(F)c2C)n1` [Example 562], the IC50 was 100 to 500 nM.
For `CCOc1c(C2=CCC(C(F)(F)F)CC2)ccc(-c2nc(S(=O)(=O)Nc3cc(F)c(C(=O)O)cc3OC)cs2)c1F` (stereo not drawn) [Example 816], the IC50 was < 100 nM.
As for `COc1cc(C(=O)O)ccc1NS(=O)(=O)c1csc(C#Cc2ccc(O)cc2)n1` [Example 183], the figure is 1000 to 100000 nM; as for `COc1cc(C(=O)O)c(F)cc1NS(=O)(=O)c1csc(C#Cc2ccc(F)cc2)n1` [Example 222], < 100 nM.
`O=C(O)c1cc2c(cc1F)OCCN2S(=O)(=O)c1ccc(F)cc1` [Example 9, 7-fluoro-4-((4-fluorophenyl)sulfonyl)-3,4-dihydro-2H-benzo[b][1,4]oxazine-6-carboxylic acid]: the IC50 fell in the range of 1000 to 100000 nM.
Consider `COc1cc(C(=O)O)ccc1NS(=O)(=O)c1csc(-c2c(C)ccc3ccccc23)n1` [Example 152], for which the IC50 was 100 to 500 nM.
On to `COc1cc2c(cc1C(=O)O)CN(S(=O)(=O)c1ccc(F)cc1)CC2` [Example 5, 2-((4-fluorophenyl)sulfonyl)-6-methoxy-1,2,3,4-tetrahydroisoquinoline-7-carboxylic acid], for which the IC50 is > 100000 nM.
Consider `COc1cc(C(=O)O)c(F)cc1NS(=O)(=O)c1csc(-c2ccc(C3=CCC(C)(C)CC3)cc2-c2ccc(F)cc2)n1` [Example 555], for which the IC50 lay within 500 to 1000 nM.
For `COc1cc(C(=O)O)c(F)cc1NS(=O)(=O)c1csc(-c2cc(F)c(C3=CCC(C)(C)CC3)c(F)c2)n1` [Example 516], the IC50 was 100 to 500 nM.
As to `COc1cc(C(=O)O)c(F)cc1NS(=O)(=O)c1ccc2nc(-c3ccc(C4CCC(C)(C)CC4)cc3)sc2c1` [Example 700], the IC50 lay in the range of 1000 to 100000 nM.
Consider `COc1cc(C(=O)O)ccc1NS(=O)(=O)c1ccc(-c2cccc(-c3ccc(OC(F)(F)F)cc3)c2)s1` [Example 254], for which the IC50 lay within 500 to 1000 nM.
In the case of `COc1cc(C(=O)O)ccc1NS(=O)(=O)N1Cc2nc(-c3ccc([C@H]4CC[C@H](C(F)(F)F)CC4)cc3)sc2C1` [Example 460], the 50% inhibitory concentration (IC50) lay within 1000 to 100000 nM.
As to `O=C(O)c1ccc(NS(=O)(=O)c2cnc(-c3ccc(F)cc3)s2)c(O)c1` [Example 40, 4-((2-(4-fluorophenyl)thiazole)-5-sulfonamido)-3-hydroxybenzoic acid], the IC50 is < 100 nM.
Next, `O=C(O)c1ccc(NS(=O)(=O)c2cnc(-c3ccc(F)cc3)s2)c(O)c1F` [Example 62]: < 100 nM; `COc1cc(C(=O)O)ccc1NS(=O)(=O)c1csc(-c2ccc(F)c3ccoc23)n1` [Example 89]: 1000 to 100000 nM; `COc1ccc(-c2nc(S(=O)(=O)Nc3ccc(C(=O)O)cc3OC)co2)cc1` [Example 415]: < 100 nM.
On to `COc1cc(C(=O)O)c(Cl)cc1NS(=O)(=O)c1cnc(-c2ccc(F)cc2)s1` [Example 78], for which the IC50 lay within 500 to 1000 nM.
In the case of `COc1cc(C(=O)O)c(F)cc1NS(=O)(=O)c1csc(-c2ccc(-c3ccc(-c4ccc(C5(C(F)(F)F)CC5)cc4)cc3C(F)(F)F)cc2C(F)(F)F)n1` [Example 796], the IC50 fell in the range of 100 to 500 nM.
`COc1cc(C(=O)O)c(F)cc1NS(=O)(=O)c1csc(-c2ccc(-c3ccc(-c4ccc(C(F)(F)C(F)(F)F)cc4)cc3C(F)(F)F)cc2C(F)(F)F)n1` [Example 788]: the IC50 fell in the range of 100 to 500 nM.
`COc1cc(-c2ccc(C(=O)O)cc2OC)ccc1NS(=O)(=O)c1cnc(-c2ccc(F)cc2)s1` [Example 390]: the IC50 lay within 1000 to 100000 nM.
For the molecule `COc1cc(C(=O)O)c(F)cc1NS(=O)(=O)c1csc(-c2ccc(-c3ccc([C@H]4CC[C@@H](C(C)(C)C)CC4)cc3C(F)(F)F)cc2C(F)(F)F)n1` [Example 783], the IC50 is 100 to 500 nM.
In the case of `COc1cc(C(=O)O)ccc1NS(=O)(=O)c1csc(-c2ccccc2F)n1` [Example 96], the half-inhibitory concentration (IC50) is 100 to 500 nM.
Take `COc1cc(C(=O)O)ccc1NS(=O)(=O)c1cnc(-c2ccc(C3=CC4CCC3C4)cc2)s1` (stereo not drawn) [Example 722]: the 50% inhibitory concentration (IC50) is 100 to 500 nM.
Turning to `COc1cc(C(=O)O)ccc1NS(=O)(=O)c1csc(C#Cc2ccc(F)cc2)n1` [Example 184], the IC50 lay in the range of 100 to 500 nM.
In the case of `O=S(=O)(Nc1ccc(Br)cc1C(F)F)c1cnc(-c2ccc(F)cc2)s1` [Example 111], the IC50 was 1000 to 100000 nM.
As for `COc1cc(C(=O)O)c(F)cc1NS(=O)(=O)c1csc(-c2ccc(C3=CCC(C)(C)CC3)c(F)c2)n1` [Example 512], the figure is < 100 nM; as for `COc1cc(C(=O)O)c(F)cc1NS(=O)(=O)c1cnc(-c2ccc([C@H]3CC[C@@H](C)CC3)cc2)s1` [Example 626], 100 to 500 nM; as for `COc1cc(C(=O)O)c(F)cc1NS(=O)(=O)c1csc(-c2ccc([C@]3(CO)CC[C@@H](C(F)(F)F)CC3)cc2)n1` [Example 532], 500 to 1000 nM.
As to `COc1cc(C(=O)O)c(F)cc1NS(=O)(=O)c1csc(C#Cc2ccccc2C)n1` [Example 237], the IC50 lay in the range of 100 to 500 nM.
`COc1cc(C(=O)O)c(F)cc1NS(=O)(=O)c1csc(-c2ccc(C3=CCC(C(C)(C)C)CC3)c(OC(C)C)c2F)n1` (stereo not drawn) [Example 593]: the IC50 is < 100 nM.
With `COc1cc(C(=O)O)c(F)cc1NS(=O)(=O)c1coc(-c2ccc(C3=CCC(C(F)(F)F)CC3)cc2)n1` (stereo not drawn) [Example 483], the IC50 is < 100 nM.
Regarding `COc1cc(C(=O)O)ccc1NS(=O)(=O)c1ccc(-c2ccccc2C(F)(F)F)s1` [Example 213], the IC50 lay within 100 to 500 nM.
On to `CCOC(=O)c1cc2c(c(OC)c1)N(S(=O)(=O)c1csc(-c3ccc(F)cc3)n1)CCC2` [Example 131], for which the IC50 fell in the range of 1000 to 100000 nM.
Next, `COc1cc(C(=O)O)ccc1NS(=O)(=O)c1ccc(-c2cnc(-c3ccccc3)s2)c(F)c1` [Example 337]: 100 to 500 nM.
For the molecule `COc1cc(C(=O)O)c(F)cc1NS(=O)(=O)c1csc(-c2ccc(C3=CCC(C)(C)CC3)c(F)c2F)n1` [Example 520], the IC50 lay within 100 to 500 nM.
Next, `CCCCOc1c(F)c(-c2nc(S(=O)(=O)Nc3cc(F)c(C(=O)O)cc3OC)cs2)ccc1[C@H]1CC[C@@H](C(C)C)CC1` [Example 588]: 100 to 500 nM; `COc1cc(C(=O)O)c(F)cc1NS(=O)(=O)c1csc(-c2ccc(C3=CCC(C)(C)CC3)c(C)c2)n1` [Example 527]: 100 to 500 nM.
Turning to `COc1cc(C(=O)O)ccc1NS(=O)(=O)c1cnc(-c2ccc(-c3ccc(C(F)(F)C(F)(F)F)cc3)cc2)s1` [Example 714], the half-inhibitory concentration (IC50) lay within 100 to 500 nM.
As for `COc1cc(C(=O)O)ccc1NS(=O)(=O)c1cccc(-c2ccc([C@H]3CC[C@@H](C(F)(F)F)CC3)cc2)c1F` [Example 474, 4-((2-fluoro-4′-((1s,4s)-4-(trifluoromethyl)cyclohexyl)-[1,1′-biphenyl])-3-sulfonamido)-3-methoxybenzoic acid], the IC50 was in the range of 100 to 500 nM.
For the molecule `COc1cc(C(=O)O)c(F)cc1NS(=O)(=O)c1csc(-c2ccc(-c3ccc(C4CCC(C(C)(C)C)CC4)cc3C(F)(F)F)cc2C(F)(F)F)n1` (stereo not drawn) [Example 781], the IC50 lay within 100 to 500 nM.
In the case of `COc1ccc(-c2nc(S(=O)(=O)Nc3ccc(C(=O)O)cc3)cs2)cc1` [Example 56, 4-((2-(4-methoxyphenyl)thiazole)-4-sulfonamido)benzoic acid], the IC50 is 500 to 1000 nM.
As to `COc1cc(C(=O)O)c(F)cc1NS(=O)(=O)c1csc(-c2ccc(C3CCC(C)(C)CC3)c(OC)c2)n1` [Example 525], the IC50 was in the range of 500 to 1000 nM.
For the molecule `COc1cc(C(=O)O)c(F)cc1NS(=O)(=O)c1csc(-c2ccc(-c3cc4ccccc4o3)cc2)n1` [Example 646], the IC50 is < 100 nM.
As for `COc1cc(C(=O)O)ccc1NS(=O)(=O)c1csc(N2CCC[C@@H](Cc3ccc(F)cc3)C2)n1` [Example 279], the IC50 is 1000 to 100000 nM.
